Laboratory results from patent US5882881A, “Inhibition of cyst formation by cytoskeletal specific drugs” (priority 1998, dated 1999).

What was measured:
Murine CPK Cells [1] = test: In vitro cyst formation and cyst size in suspension culture of murine CPK cells; format: cell-based, mouse; conditions: day 21, 24 h, final concentration per Table II (cytosine arabinoside 20 μg/ml, α-amanitin 100 ng/ml, cycloheximide 49 μg/ml, ouabain 1 mM, amiloride 1 mM, brefeldin-A 10 μg/ml, griseofulvin 350 μM, colchicine 10 μM, vinblastine 1 μM, nocodazole 30 μM, taxol 25 μM, cytochalasins 10 μM)
Murine CPK Cells [2] = test: as above; format: cell-based, mouse
homozygous cpk mice = test: Survival of cpk mice on weekly intraperitoneal treatment (Example 8, FIG. 2); format: in vivo, mouse
Excerpt: Untreated and methotrexate (MTX) treated polycystic cpk mice all died before 30 days of age. Most polycystic cpk mice treated with weekly taxol survive more than 60 days. The dotted line starting at day 120 indicates the number and age of apparently healthy taxol treated polycystic mice that were sacrificed for histology studies. Pairs of mice were sacrificed at 120 days, 182 days and 210 days of age.
In order to determine whether taxol prevents cyst formation by inhibiting cell division, another drug known to have anti-mitotic activity, methotrexate, was tested for its ability to treat homozygous cpk mice. Six cpk mice were injected intraperitoneally with 15 μl of methotrexate solution (1.1 mg/ml in water) 10-12 days after birth and once every week thereafter. The methotrexate-injected mice survived until between 18 and 27 days after birth, with only one mouse living longer than 28 days. […] Therefore, the anti-mitotic activity of taxol cannot explain its ability to treat CPK mice having a polycystic-type kidney disease. Rather, the results from in vitro tests indicate that agents which interfere with the function of the cytoskeleton, or which inhibit the delivery of membrane proteins are useful in treating cystic diseases such as Polycystic Kidney Disease.
Eleven homozygous cpk mice, raised and identified as in Example 6 were treated with 15 μl of 10 mg/ml taxol in DMSO through intraperitoneal injection beginning 11-14 days after birth. Following the first treatment, the mice were administered with the same treatment once every week thereafter. As controls, 6 cpk mice were treated with 15 μl intraperitoneal injections of DMSO beginning 10-12 days after birth and then once every week thereafter.

With `CC(=O)O[C@H]1C(=O)[C@@]2(C)[C@H]([C@H](OC(=O)c3ccccc3)[C@]3(O)C[C@H](OC(=O)[C@H](O)[C@@H](NC(=O)c4ccccc4)c4ccccc4)C(C)=C1C3(C)C)[C@]1(OC(C)=O)CO[C@@H]1C[C@@H]2O` [Taxol] the “Cyst Formation (+/-)” value (Murine CPK Cells [1]) was “-”, the “Cyst Size” value (Murine CPK Cells [2]; mean ± SD of twenty cysts, concentrations as in Table II, control 71 ± 22) was 0 μm and the “cyst formation (in words)” value (Murine CPK Cells [2]; murine CPK cells, 24 h suspension culture, ouabain 0.5 mM, also 1 mM, b155 taxol 25 μM, colchicine 10 μM, vinblastine 1 μM, cytochalasins 10 μM, model species not given) was “reversibly inhibited in vitro cyst formation in both models”. The “survival (in words)” value (homozygous cpk mice; weekly i.p., versus untreated or DMSO) was “generally experienced substantially longer life spans” and the “condition of treated polycystic mice (in words)” value (homozygous cpk mice; weekly taxol, pairs sacrificed at 120, 182 and 210 days of age) was “remained active until sacrifice and attained adult size and weight, despite having palpably enlarged kidneys”.
